In patent US8106055B2, “Substituted amide compounds” (Gruenenthal GmbH, priority 2007, dated 2012):

Tests used:
[1] = biological target: T1, human μ opiate receptor (Homo sapiens, UniProt P35372); experiment: Affinity for the human μ opiate receptor ([3H]-naloxone displacement, CHO-K1 receptor membrane preparation, SPA); assay type: binding; details: test concentration of 1 μM
T1 construct: purchased PerkinElmer Life Sciences, Zaventem, Belgium RB-HOM; host or cells: CHO-K1 cells (membrane preparation)
Procedure, shortened: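 Scintillation proximity binding on human μ receptor membranes from CHO-K1 cells used 1 nmol/l [3H]-naloxone over 90 min at room temperature in 50 mmol/l Tris-HCl, 0.06% BSA. Percent inhibition was recorded at 1 μM.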

[2] = biological target: T2, bradykinin 1 receptor (B1R) of the rat (Rattus norvegicus, UniProt P97583); experiment: Functional investigation on the rat bradykinin 1 receptor (B1R), Ca2+ FLIPR assay in CHO K1 rB1R cells; assay type: cell-based; details: B1R antagonism rat; test substance 10 μM; Ca2+ FLIPR, CHO K1 rB1R cells
T2 construct: expressed in transfected cells; host or cells: CHO K1 cells
T2 sequence (P97583 1-337): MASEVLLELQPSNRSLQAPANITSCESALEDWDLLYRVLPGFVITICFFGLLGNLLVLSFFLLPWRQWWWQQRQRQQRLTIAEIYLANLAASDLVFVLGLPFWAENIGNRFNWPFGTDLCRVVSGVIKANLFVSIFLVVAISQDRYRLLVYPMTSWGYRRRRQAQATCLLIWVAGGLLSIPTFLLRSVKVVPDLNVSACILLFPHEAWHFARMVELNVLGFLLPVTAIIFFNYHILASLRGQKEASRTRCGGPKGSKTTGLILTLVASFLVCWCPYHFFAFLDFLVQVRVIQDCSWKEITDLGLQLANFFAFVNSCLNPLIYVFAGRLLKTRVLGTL
Procedure, shortened: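 Cells were dye-loaded with Fluo-4 plus probenecid, then test substances added and Ca2+ influx compared with agonist control for % activation. After 10-20 min, EC80 agonist (Lys-Des-Arg9-bradykinin human; Des-Arg9-bradykinin rat) was applied; suppression gave % inhibition and IC50 values.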

T1 sequence (P35372 whole entry): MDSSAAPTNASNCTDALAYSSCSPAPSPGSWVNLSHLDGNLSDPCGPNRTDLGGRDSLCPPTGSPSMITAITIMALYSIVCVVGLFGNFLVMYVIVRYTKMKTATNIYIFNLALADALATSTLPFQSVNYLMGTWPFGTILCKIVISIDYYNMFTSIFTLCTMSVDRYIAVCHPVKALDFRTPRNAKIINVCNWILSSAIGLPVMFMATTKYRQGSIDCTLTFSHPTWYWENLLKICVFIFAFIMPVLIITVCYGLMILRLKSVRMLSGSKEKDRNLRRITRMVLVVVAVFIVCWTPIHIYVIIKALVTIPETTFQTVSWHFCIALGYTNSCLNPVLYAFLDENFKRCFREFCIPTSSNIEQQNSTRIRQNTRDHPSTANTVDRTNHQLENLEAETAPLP

Row | Compound | μ (binding on the μ opioid receptor, % inhibition) [1] [%] | B1R Ant. r [10 μM] % Inhibition [2] [%]
1 | COc1ccc(S(=O)(=O)N2Cc3ccccc3CC2COCC(=O)NCCC2CCC(C(c3ccc(F)cc3)N(C)C)CC2)cc1 (stereo not drawn) [Example 389] | 58 | 21
2 | COc1cc(C)c(S(=O)(=O)N2CCC(OCC(=O)NCC3CCC(C(c4ccc(Cl)cc4)N(C)C)CC3)C2)c(C)c1C (stereo not drawn) [Example 428] | 49 | 8
3 | COc1ccc(S(=O)(=O)N2CCCC2COCC(=O)NCCC2CCC(C(c3ccc(F)cc3)N(C)C)CC2)cc1 (stereo not drawn) [Example 409] | 54 | 48
4 | COc1cc(C)c(S(=O)(=O)N2CCC(OCC(=O)NCC3CCC(C(c4ccc(F)cc4)N(C)C)CC3)C2)c(C)c1C (stereo not drawn) [Example 427] | 50 | 8
5 | COc1cc(C)c(S(=O)(=O)N(CCOCC(=O)NCC2CCC(C(c3cccc(F)c3)N(C)C)CC2)Cc2ccccc2)c(C)c1 (stereo not drawn) [Example 388] | 65 | 16
6 | CN(C)C(c1ccc(F)cc1)C1CCC(CCNC(=O)COCCN(C)S(=O)(=O)c2ccc(Cl)cc2)CC1 (stereo not drawn) [Example 377] | 59 | 25
7 | Cc1ccc(S(=O)(=O)N2CCC(OCC(=O)NCC3CCC(C(c4ccc(F)cc4)N(C)C)CC3)C2)cc1 (stereo not drawn) [Example 447] | 44 | 3
8 | CN(C)C(c1ccc(F)cc1)C1CCC(CNC(=O)COCCN(C)S(=O)(=O)c2c(Cl)cc(Cl)cc2Cl)CC1 (stereo not drawn) [Example 404] | 53 | 33
9 | CN(C)C(c1ccc(Cl)cc1)C1CCC(CCNC(=O)COCCN(Cc2ccccc2)S(=O)(=O)c2ccccc2)CC1 (stereo not drawn) [Example 426] | 48 | 9
10 | CN(C)C(c1ccc(F)cc1)C1CCC(CNC(=O)COCCN(C)S(=O)(=O)c2cccc(C(F)(F)F)c2)CC1 (stereo not drawn) [Example 390] | 55 | 16
11 | CN(C)C(c1ccc(Cl)cc1)C1CCC(CCNC(=O)COC2CCN(S(=O)(=O)c3ccc(F)cc3)C2)CC1 (stereo not drawn) [Example 440] | 47 | 31
12 | COc1cc(C)c(S(=O)(=O)N2CCC(OCC(=O)NCC3CCC(C(c4ccc(Cl)cc4)N(C)C)CC3)C2)c(C)c1 (stereo not drawn) [Example 403] | 52 | 84
